{"source": "patent US20030216471A1", "about": "“Retinoid formulations for aerosolization and inhalation” (priority 2003, published 2003)", "key": {"A/J mouse": {"test_system": "A/J mouse", "conditions": "cited from earlier work; for Efficacy (Carcinogen): 20 weeks, urethane"}, "TGase II": {"test_system": "TGase II", "assay": "TGase II activity in cultured human breast cancer MCF-7 cells", "format": "cell-based", "conditions": "MCF-7 cells, 10^−6 M, 72 hours, over DMSO", "procedure": "Cells were harvested and Transglutaminase II activity was measured as described below. Nebulizer solution, inhalation procedures, details of animal housing are described below.\nCultured cells were placed in 100 μl scraping buffer [A: 2800 μl (400 μl 0.5M Na-Phosphate, 500 μl 0.01M EDTA, 100 μl 1M DTT, 9 ml PBS total 10 ml)+B:700 μl (10 μl 20 mg/ml PMSF 790 μl PBS total 800 μl)] for each dish. Cells were broken by a sonicator and kept in ice until used. TGase II assay was conducted as described below and previously {8217}.\nEnzyme assay mixtures were prepared by adding 80 μl of SUBSTRATE mixture (322.8 μl H2O, 120 μl 0.5M NaBorate, 60 μl 0.01M EDTA, 60 μl 0.1M CaCl2, 6 μl 1M DTT, 240 μl dimethyl casein, 30 μl Triton X-100, 1.21 μl [^3H]-Putrescine, 120 μl Putrescine) to 20 μl sample, 20 μl scraping buffer for blank control, 20 μl (18 μl scraping buffer+2 μl TGase II) for positive control. Samples were mixed in 15 ml tubes, the tubes were shaken before putting them into a 28° C. water bath for 30 minutes. Reactions were slowed down in an ice bath. 80 μl of the incubation mixture was adsorbed onto paper disks. These were immediately dropped into cold 10% TCA (0.1% Putrescine) and washed with agitation for 7 minutes, followed by 2 additional washes with 5% TCA (0.05% putrescine) for 5-7 minutes, and once more with cold (−20° C.) 95% ethanol for 5 minutes. Paper disks were dried and placed into 5 ml Aquasol, and counted in a Liquid Scintillation Counter. Protein concentration determination was conducted by the Bradford method."}, "liver RARs": {"test_system": "liver RARs", "assay": "Western blot of rat liver RARs after inhaled 13-cis RA", "format": "in vivo", "conditions": "not shown", "procedure": "(§1) The experimental groups were as follows (Table 4):1. Vehicle (10/9 mix of PEG 300 and Ethanol with 0.5% of ascorbic acid and 0.5% phosphatidyl choline) control, day 1: rats (19) inhaled vehicle for 2 hr for one day; 2. […] Vehicle control, day 28: rats (16) inhaled vehicle as for group 1 for a period of 28 days; 5.\nThe experimental groups were as follows (Table 1): 1. Vehicle control: rats (3) inhaled vehicle for 240 minutes; 2.\nTissues were collected, frozen in dry ice and kept at −70° C. until used. 500 mg aliquots were diced in small pieces and homogenized in 300 μl of cold PBS, using the hand held homogenizer for 2˜3 minutes. Sample and washes were centrifuged at 5000×g for 20 minutes. The pellet was suspended in 400 μl of ice-cold Buffer A [2 μl 0.5M EDTA, 10 μl 100 mM EGTA, 50 μl 100MM PMSF, 10 μl 1M DTT, 10 ml (10 mM HEPES pH 7.9+10 mM KCl)], and left at ice temperature for 15 minutes. 25 μl of 10% solution of NP-40 was added and samples were mixed in a vortex vigorously for 10 seconds. Samples were centrifuged at 14,000×g for 1 minute at 4° C. and the pellet treated once more in this fashion (resuspended etc.). The supernatant was removed and 100 μl of ice-cold Buffer C [4 μl 0.5M EDTA, 20 μl 100 mM EGTA, 20 μl 100 mM PMSF, 2 μl 1M DTT, 2 ml (20 mM HEPES pH 7.9+0.4M NaCl)] was added. Pellets were resuspended by tapping gently on the bottom of the Eppendorf tubes. […]"}, "[1]": {"test_system": "second aerodigestive tumors", "conditions": "oral, 1-2 mg/kg/day, previously treated head-and-neck cancer patients; cited from earlier work"}, "RAR β": {"test_system": "RAR β", "assay": "Western blot of rat lung, inhaled 13-cis RA (experiment A), RAR β", "format": "in vivo", "conditions": "for upregulation of lung tissue RAR (second named, β): daily deposited dose 6.4 mg/kg/day", "procedure": "as §1\nTissues were collected, frozen in dry ice and kept at −70° C. until used. 500 mg aliquots were diced in small pieces and homogenized in 300 μl of cold PBS, using the hand held homogenizer for 2˜3 minutes. Sample and washes were centrifuged at 5000×g for 20 minutes. The pellet was suspended in 400 μl of ice-cold Buffer A [2 μl 0.5M EDTA, 10 μl 100 mM EGTA, 50 μl 100MM PMSF, 10 μl 1M DTT, 10 ml (10 mM HEPES pH 7.9+10 mM KCl)], and left at ice temperature for 15 minutes. 25 μl of 10% solution of NP-40 was added and samples were mixed in a vortex vigorously for 10 seconds. Samples were centrifuged at 14,000×g for 1 minute at 4° C. and the pellet treated once more in this fashion (resuspended etc.). The supernatant was removed and 100 μl of ice-cold Buffer C [4 μl 0.5M EDTA, 20 μl 100 mM EGTA, 20 μl 100 mM PMSF, 2 μl 1M DTT, 2 ml (20 mM HEPES pH 7.9+0.4M NaCl)] was added. Pellets were resuspended by tapping gently on the bottom of the Eppendorf tubes. Samples were rocked vigorously in a bucket of ice on an orbital shaker for 30 minutes. Samples were centrifuged at 14,000×g for 5 minutes at 4° C.\nSamples were prepared by adding one part of the Sample Buffer to one part of the sample and mixing well. Samples were heated at 95° C. for 5 minutes to induce denaturation. 5 μl of Rainbow Standard and 5 μl of Biotinylated Molecular Marker were added to parallel wells. 20 μg protein per sample was loaded in each lane. Electrophoresis was performed with voltage set at 125V for about 1˜1.5 hours. Gel transfer was executed at 25V for 2 hours. The membrane was stained in Ponceau S. for 5 minutes and destained with one wash of 5% acetic acid. The membrane was then washed in TBS solution until the staining disappeared. […]"}, "[2]": {"conditions": "doses used in the MD Anderson study, based on pharmacokinetic data; cited from earlier work"}, "RAR γ": {"test_system": "RAR γ", "assay": "RAR induction in lungs of A/J mice exposed to isotretinoin aerosol, RAR γ", "format": "in vivo, mouse", "conditions": "inhaled mid dose, urethane-treated A/J mice", "quoted_text": "Antibodies: Polyclonal antibodies to RARα, β and γ (Santa Cruz Biotechnology Inc., San Francisco, Calif.) were used with a BM Chemiluminescence Western Blotting Kit (Mouse/Rabbit) (Boehringer Mannheim Corporation, Indianapolis).\nExperimental Design: Five lungs each from the urethane-treated vehicle, low dose, and mid dose animals were snap frozen in liquid nitrogen and stored at −70° C. for determination of RARs α, β and γ by Western Blot Analysis. […] The lungs were homogenized and the RARs were determined by standard Western Blotting (21, 22).\nSamples: Lung tissue was collected, frozen on dry ice and kept at −70° C. until used. A 500 mg portion was diced in small pieces and homogenized in 300 μl of cold PBS using a hand held homogenizer for 2-3 min. Samples were centrifuged at 500 rpm for 5 min or until the supernatant was clear. The pellet was suspended in 400 μl of cold Buffer A [2 μl 0.5 M EDTA, 10 μl mM EGTA, 50 μl 100 mM PMSF, 10 μl 1M DTT, 10 ml (10 mM HEPES pH 7.9+10 mM KCl)], and left at ice temperature for 15 min. A 25 μl volume of 10% solution of NP−40 was added and the samples were mixed in a vortex vigorously for 10 sec. Samples were centrifuged at 14,000 rpm for 1 min at 4° C. and the pellet was treated once more in this fashion. […]"}}, "note": "Read-outs that look alike come from different tables or passages of the source.", "data": [{"smiles": "CC1=C(/C=C/C(C)=C/C=C/C(C)=C\\C(=O)O)C(C)(C)CCC1", "note": "[13-cis RA, 13-cis-Retinoic Acid]", "values": [{"measurement": "Efficacy (Carcinogen)", "setting": "A/J mouse; 200 mg/kg weekly ingested (po)", "value": "No (urethane)"}, {"measurement": "Efficacy (Carcinogen)", "setting": "A/J mouse; 400 mg/kg weekly ingested (po)", "value": "No (urethane)"}, {"measurement": "prevention of urethane-induced lung cancer", "setting": "A/J mouse; orally administered, over 300 mg/kg weekly, A/J mouse model", "value": "failed to prevent"}, {"measurement": "stimulating TGase II activity", "setting": "TGase II", "value": 6.1, "unit": "Fold"}, {"measurement": "effect of inhaled 13-cis RA on liver RARs", "setting": "liver RARs; 5 to 240 minutes daily for 14 days", "value": "not responsive"}, {"measurement": "effect of inhaled 13-cis RA on liver RARs", "setting": "liver RARs; same rats as FIG. 2A (experiment A)", "value": "failed to show any increase"}, {"measurement": "protection against second aerodigestive tumors", "setting": "[1]", "value": "significantly protective"}, {"measurement": "induction of lung RAR (second named, β)", "setting": "RAR β; daily deposited dose 1.9 mg/kg/day, day 28", "value": 8.0, "unit": "fold"}, {"measurement": "upregulation of lung tissue RAR (second named, β)", "setting": "RAR β; day 1", "value": 7.2, "unit": "fold"}, {"measurement": "upregulation of lung tissue RAR (second named, β)", "setting": "RAR β; day 17", "value": 10.0, "unit": "fold"}, {"measurement": "steady-state blood levels", "setting": "[2]", "value": "100 to 200", "unit": "ng/mL"}, {"measurement": "upregulation of lung tissue RAR γ over solvent (vehicle)", "setting": "RAR γ", "value": 3.7, "unit": "fold"}]}]}
